Measurements published in ChEMBL document CHEMBL4483862, “Open-source discovery of chemical leads for next-generation chemoprotective antimalarials” (2018).

System: Plasmodium berghei
Assay: Luciferase/luciferin-expressing antifolate-resistant parasites were used to infect a culture of HepG2 cells that were pre-incubated with compounds. Infected hepatocytes emit light due to the luciferase reaction. Assay results are presented as the percent inhibition of light emission compared to control. […]
Format: functional
Settings: sporozoite; for IC90: read-out: LUCIFERASE INFECTION ASSAY - IC90
[1] = read-out: LUCIFERASE INFECTION ASSAY - IC50

| Structure (SMILES) | IC90 [µM] | other results |
| --- | --- | --- |
| O=C(Cn1nnc(-c2ccccc2)n1)N/N=C/c1c(O)ccc2ccccc12 | > 10 | IC50 (HEPG2TOX_HILL_SLOPE 16.4, HEPG2TOX_R_SQUARED 0.547, PBLUC_HILL_SLOPE 10.9, PBLUC_R_SQUARED 0.367, read-out: LUCIFERASE INFECTION ASSAY - IC50): 8.32 µM |
| Cc1ccc(-c2nc(COC(=O)Cc3ccccc3[N+](=O)[O-])cs2)cc1 | > 10 | IC50 (HEPG2TOX_HILL_SLOPE 1.86, HEPG2TOX_R_SQUARED 0.968, PBLUC_HILL_SLOPE 3.1, PBLUC_R_SQUARED 0.491, read-out: LUCIFERASE INFECTION ASSAY - IC50): 6.23 µM |
| CC(=O)c1c(C)[nH]c(C(=O)OCC(=O)Nc2ccccc2C(F)(F)F)c1C | > 10 | IC50 (HEPG2TOX_HILL_SLOPE 0.401, HEPG2TOX_R_SQUARED 0.713, read-out: LUCIFERASE INFECTION ASSAY - IC50): > 10 µM |
| CCCCCCCCCCOCC[N+]1(C)CCOCC1 | 7.47 | IC50 (HEPG2TOX_HILL_SLOPE 3.29, HEPG2TOX_R_SQUARED 0.591, PBLUC_HILL_SLOPE 1.92, PBLUC_R_SQUARED 0.78, read-out: LUCIFERASE INFECTION ASSAY - IC50): 2.38 µM |
| COc1ccc(C)cc1CCNC(=O)c1cc(C2CC2)nn1-c1ccccc1 | > 10 | IC50 [1]: > 10 µM |
| COc1ccc(NC(C)=O)cc1Nc1nc(C(F)(F)F)nc2ccccc12 | > 10 | IC50 (HEPG2TOX_HILL_SLOPE 9.23, HEPG2TOX_R_SQUARED 0.863, PBLUC_HILL_SLOPE 3.13, PBLUC_R_SQUARED 0.379, read-out: LUCIFERASE INFECTION ASSAY - IC50): 6.22 µM |
| Cc1cc(C)c2cc(C(=O)Nc3ccc(N4CCN(C)CC4)nc3)[nH]c2c1 | 3.64 | IC50 (HEPG2TOX_HILL_SLOPE 1.47, HEPG2TOX_R_SQUARED 0.9, PBLUC_HILL_SLOPE 16.4, PBLUC_R_SQUARED 0.482, read-out: LUCIFERASE INFECTION ASSAY - IC50): 3.19 µM |
| N#Cc1ccc(CN2CCN(Cc3nnc(C(=O)Nc4ccc(Cl)cc4)s3)CC2)cc1 | > 10 | IC50 [1]: > 10 µM |
| COc1ccc(Sc2ccc(NC(=O)c3ccc(F)cc3)cc2C#N)cc1 | > 8.72 | IC50 [1]: > 8.72 µM |
| Cn1c(-c2ccco2)nc2cnc(Nc3cccc(F)c3)cc21 | > 10 | IC50 (HEPG2TOX_HILL_SLOPE 1.1, HEPG2TOX_R_SQUARED 0.907, read-out: LUCIFERASE INFECTION ASSAY - IC50): > 10 µM |
| O=C(Nc1ccc(SC(F)(F)F)cc1)Nc1ccc(Oc2cccc(C(F)(F)F)c2)nc1 | 0.806 | IC50 (HEPG2TOX_HILL_SLOPE 4.03, HEPG2TOX_R_SQUARED 0.946, PBLUC_HILL_SLOPE 9.59, PBLUC_R_SQUARED 0.631, read-out: LUCIFERASE INFECTION ASSAY - IC50): 0.641 µM |
| CC1c2ccsc2CCN1C(=S)NC(=O)c1cccs1 (stereo not drawn) | > 10.2 | IC50 (FFLUC_HILL_SLOPE 16.3, FFLUC_R_SQUARED 0.288, HEPG2TOX_HILL_SLOPE 6.88, HEPG2TOX_R_SQUARED 0.689, PBLUC_HILL_SLOPE 3.81, PBLUC_R_SQUARED 0.3, read-out: LUCIFERASE INFECTION ASSAY - IC50): 6.21 µM |
| NC(c1csc(Nc2nccc(C(F)(F)F)n2)n1)C1CCCCC1 (stereo not drawn) | 3.66 | IC50 [1]: 2.8 µM |
| Cc1nc2nc(C(F)(F)F)nn2c(C)c1CCC(=O)NCC(c1cccs1)N1CCC(C)CC1 (stereo not drawn) | > 10 | IC50 (PBLUC_HILL_SLOPE 1.88, PBLUC_R_SQUARED 0.575, read-out: LUCIFERASE INFECTION ASSAY - IC50): 6.51 µM |
| O=S(=O)(c1ccc(Cl)s1)N1CCC(C(c2ccccc2)c2ccccc2)CC1 | > 7.64 | IC50 (FFLUC_HILL_SLOPE 0.891, FFLUC_R_SQUARED 0.199, PBLUC_HILL_SLOPE 11.4, PBLUC_R_SQUARED 0.0957, read-out: LUCIFERASE INFECTION ASSAY - IC50): > 7.64 µM |
| COc1ccccc1-n1c(SCc2cc(=O)oc3c(C)c(C)ccc23)nc2ccccc2c1=O | > 10 | IC50 [1]: > 10 µM |
| O=[N+]([O-])c1cnc(Sc2nnc(O)n2C2CCCCC2)s1 | 9.75 | IC50 (FFLUC_HILL_SLOPE 1.98, FFLUC_R_SQUARED 0.448, HEPG2TOX_HILL_SLOPE 4.19, HEPG2TOX_R_SQUARED 0.922, PBLUC_HILL_SLOPE 12.6, PBLUC_R_SQUARED 0.344, read-out: LUCIFERASE INFECTION ASSAY - IC50): 8.19 µM |
| C=Cc1c(SC)sc(C(=O)O)c1C | > 15.4 | IC50 [1]: > 15.4 µM |
| O=C(Nc1ccc(Cl)c(Cl)c1)n1ccc(C(F)(F)F)n1 | > 10.2 | IC50 (HEPG2TOX_HILL_SLOPE 2.26, HEPG2TOX_R_SQUARED 0.289, PBLUC_HILL_SLOPE 2.6, PBLUC_R_SQUARED 0.537, read-out: LUCIFERASE INFECTION ASSAY - IC50): 5.64 µM |
| CC(O)c1ccc(-c2ccccc2NC(=O)c2ccccn2)s1 (stereo not drawn) | > 10 | IC50 (HEPG2TOX_HILL_SLOPE 8.65, HEPG2TOX_R_SQUARED 0.867, read-out: LUCIFERASE INFECTION ASSAY - IC50): > 10 µM |

| Structure (SMILES) | IC90 [µM] | other results |
| --- | --- | --- |
| c1cnc(N2CCN(CCCNc3ncnc4sccc34)CC2)nc1 | > 10 | IC50 (FFLUC_HILL_SLOPE 14.8, FFLUC_R_SQUARED 0.258, HEPG2TOX_HILL_SLOPE 2.5, HEPG2TOX_R_SQUARED 0.964, PBLUC_HILL_SLOPE 9.27, PBLUC_R_SQUARED 0.473, read-out: LUCIFERASE INFECTION ASSAY - IC50): 8.5 µM |
| Cc1cc(C(=O)OCC(=O)c2ccc[nH]2)c2c(C)noc2n1 | > 10 | IC50 [1]: > 10 µM |
| CCCCCCNC(=S)c1c(-c2ccc(F)cc2)c2c3n(c(COc4cc(C)ccc4C(C)C)nn13)CCCC2 | 8.92 | IC50 (HEPG2TOX_HILL_SLOPE 19.8, 4.67, HEPG2TOX_R_SQUARED 0.943, 0.975, PBLUC_HILL_SLOPE 3.99, PBLUC_R_SQUARED 0.689, read-out: LUCIFERASE INFECTION ASSAY - IC50): 5.14 µM |
| CS(=O)(=O)c1ccc(C(=O)OC(C(=O)c2c[nH]c3ccccc23)c2ccccc2)cc1[N+](=O)[O-] (stereo not drawn) | 7.61 | IC50 (HEPG2TOX_HILL_SLOPE 12.6, HEPG2TOX_R_SQUARED 0.833, PBLUC_HILL_SLOPE 19.7, 53.6, PBLUC_R_SQUARED 0.857, 0.714, read-out: LUCIFERASE INFECTION ASSAY - IC50): 7.02 µM |
| Cc1nn(C(=O)Nc2cccc(C(F)(F)F)c2)c(C)c1Sc1ccc(C(F)(F)F)cn1 | > 7.17 | IC50 (HEPG2TOX_HILL_SLOPE 21.1, HEPG2TOX_R_SQUARED 0.715, PBLUC_HILL_SLOPE 11, PBLUC_R_SQUARED 0.14, read-out: LUCIFERASE INFECTION ASSAY - IC50): 6.09 µM |
| Cc1ccc(C(C)C)cc1OCC(=O)N1CCC(C(=O)Nc2ccccc2O)CC1 | 4.58 | IC50 (PBLUC_HILL_SLOPE 135, PBLUC_R_SQUARED 0.614, read-out: LUCIFERASE INFECTION ASSAY - IC50): 4.51 µM |
| O=C(Cc1ccc(Cl)cc1)N1CCc2nc(NCc3cccc(Oc4ccccc4)c3)ncc2C1 | > 6.8 | IC50 (PBLUC_HILL_SLOPE 4.18, PBLUC_R_SQUARED 0.529, read-out: LUCIFERASE INFECTION ASSAY - IC50): 4.95 µM |
| Cc1cc(C(=O)OCC(=O)NC2CCCCCCC2)c(C)n1-c1ccccc1 | > 10 | IC50 [1]: > 10 µM |
| COc1ccc2c(c1)c(CC(=O)Nc1cccc(S(=O)(=O)N3CCCC3)c1)c(C)n2C(=O)c1ccc(Cl)cc1 | > 10 | IC50 (FFLUC_HILL_SLOPE 4.55, FFLUC_R_SQUARED 0.0972, read-out: LUCIFERASE INFECTION ASSAY - IC50): > 10 µM |
| COc1ccc(-c2cc(NC(=O)Cc3ccc(S(=O)(=O)N4CCCC4)s3)ccc2OC)cc1 | 4.64 | IC50 (FFLUC_HILL_SLOPE 14.7, FFLUC_R_SQUARED 0.565, HEPG2TOX_HILL_SLOPE 10.6, HEPG2TOX_R_SQUARED 0.932, PBLUC_HILL_SLOPE 12.2, PBLUC_R_SQUARED 0.78, read-out: LUCIFERASE INFECTION ASSAY - IC50): 3.88 µM |
| COc1cc(C)ccc1Oc1nc2cc(C)nn2c2ccccc12 | > 10 | IC50 (HEPG2TOX_HILL_SLOPE 1.87, HEPG2TOX_R_SQUARED 0.892, read-out: LUCIFERASE INFECTION ASSAY - IC50): > 10 µM |
| CN(C)c1nn(C(=S)Nc2cccc(C(F)(F)F)c2)cc1-c1ccccc1 | > 8.45 | IC50 [1]: > 8.45 µM |
| CC(C)(C)c1ccc(-c2ccc(OCCCc3ccccn3)nc2)cc1 | > 9.52 | IC50 (HEPG2TOX_HILL_SLOPE 3.23, HEPG2TOX_R_SQUARED 0.98, PBLUC_HILL_SLOPE 2.82, PBLUC_R_SQUARED 0.72, read-out: LUCIFERASE INFECTION ASSAY - IC50): 6.22 µM |
| Cc1cc(Cl)ccc1NC(N)=NN | > 10.1 | IC50 [1]: > 10.1 µM |
| CSCc1nc(=O)c2c(C)c(C(=O)NN3C(=O)NC(C)(c4ccccc4)C3=O)sc2[nH]1 (stereo not drawn) | > 10 | IC50 [1]: > 10 µM |
| O=C(Nc1nc2ccccc2[nH]1)c1cn(Cc2ccccc2)nc1-c1cccnc1 | > 10 | IC50 (PBLUC_HILL_SLOPE 3.18, PBLUC_R_SQUARED 0.533, read-out: LUCIFERASE INFECTION ASSAY - IC50): 7.1 µM |
| Cc1ccc([N+](=O)[O-])cc1S(=O)(=O)Nc1ccccc1C(=O)OCC(=O)NCCC1=CCCCC1 | > 10 | IC50 (HEPG2TOX_HILL_SLOPE 2.79, HEPG2TOX_R_SQUARED 0.956, PBLUC_HILL_SLOPE 19.8, PBLUC_R_SQUARED 0.561, read-out: LUCIFERASE INFECTION ASSAY - IC50): 9.09 µM |
| O=C(Nc1ccccc1)c1ccc(C2(CNCc3cccnc3)CC2)cc1 | 0.637 | IC50 (PBLUC_HILL_SLOPE 3.24, PBLUC_R_SQUARED 0.623, read-out: LUCIFERASE INFECTION ASSAY - IC50): 0.323 µM |
| O=[N+]([O-])c1ccc(-c2nnc(SCc3c(Cl)cccc3Cl)s2)o1 | > 8.5 | IC50 (FFLUC_HILL_SLOPE 3.16, FFLUC_R_SQUARED 0.676, read-out: LUCIFERASE INFECTION ASSAY - IC50): > 8.5 µM |
